Laboratory results published in US5798381A, “Biologically active bistramides, process for their production and their applications in therapy” (Institut Francais de Recherche Scientifique pour le …, priority 1993, dated 1998).
Converted amounts (≈) assume the structure as drawn. Read-outs that look alike come from different tables or passages of the source.

How the values were obtained:
mice = test: Acute toxicity (LD50), intravenous injection in mice; type: in vivo; conditions: statement in words
Experimental: The LD50 of these bistramides is in fact of the order of 1.7 mg/kg (measured in mice, after injection of the product by intravenous route as a single dose).
The "LD50 " of the products of the invention has been measured for mice after injection of the products by intravenous route.

P388/dox (p388r) = test: Cytotoxicity, 50% inhibition of cell growth, P388/dox (resistant to doxorubicin); type: cell-based; conditions: Mus musculus
Experimental: (§1) The cytoxicity results are recorded hereafter as the IC50 in μg/ml (concentration corresponding to a 50% inhibition of cell growth) on 6 tumoural lines namely KB, P388, P388/dox (resistant to doxorubicin), B16 and H429 and NSCLC-N6, which are human cells of non-small cell bronchopulmonary carcinoma type.
(§2) The determinations were carried out according to the protocol given in Cancer Chemother. Pharmacol. (1991) 28:283-292 by Roussakis et al.

P388 (p388s) = test: Cytotoxicity, 50% inhibition of cell growth, P388; type: cell-based; conditions: Mus musculus, P388/S; p388s; read-out: IC50 (50% inhibition of cell growth)
Experimental: as §1, §2

[1] = test system: NSCLC solid tumours (xenograft); type: in vivo, nude mouse; conditions: at the end of 30 days
Experimental: The anti-tumoural activity of the products of the invention was studied against solid tumours of NSCLC type grafted onto a nude mouse (D. Riou, C. Roussakis, J. F. Biard, J. F. Verbist: "Comparative study of antitumor activity of bistramides A, D and K against non-small cell bronchopulmonary carcinoma", Anticancer Research, 1993, 13, 2321-2334). Each mouse received 0.2 ml of a cell solution obtained by the mechanical dispersion of about 1 g of excised mouse tumour in 4.8 ml of a sterile saline solution. The sub-cutaneous grafted tumours were measured over their long length L and their short length 1. The tumoural volume was evaluated according to the formula Vt=L×1^2 /2. The tumoural growth on day d was calculated by the formula Vtd /Vtd0 for each mouse, Vtd0 being the tumoural volume at the start of treatment.
The curve "------.circle-solid.------ " relates to the control experiment, the curves "--- .diamond-solid.---", "-- .quadrature.--" and "-- .box-solid.--" to experiments with 10, 20 and 5 mg/kg of bistramide D respectively and the curve "----*----" to an experiment with 10 mg/kg of bistramide K. Each point represents the average tumoural growth for 6 mice.
In these experiments, bistramide K is injected at the rate of 10 mg/kg by intraperitoneal route for 16 days and bistramide D at the rate of 5 mg/kg by intraperitoneal route every day for 16 days; at 10 mg/kg by intravenous route on days 1, 5, 9, 14, and at 20 mg/kg by intravenous route on days 1, 5, 9, 14.

B16 = test: Cytotoxicity, 50% inhibition of cell growth, B16; type: cell-based; conditions: Mus musculus, B16; read-out: IC50 (50% inhibition of cell growth)
Experimental: as §1, §2

[2] = test system: Plasmodium vinckei petteri; test: PETERS test (4-day anti-malarial test in mice); type: in vivo, Plasmodium vinckei petteri in SWISS female white mice; conditions: 15 mg/kg/day, 4 days, sub-cutaneous; for percentage inhibition of parasitemia: D4
Experimental: The animals used are SWISS (IFFA CREDO) female white mice weighing approximately 30 grams. Five mice are distributed per batch.
The species Plasmodium vinckei petteri used comes from the strain 279 BY (see article by Cambie G et al. in CR.Acad.Sci.PARIS 310, series III, 183-188). This plasmodia carries out a schizogonic cycle in 24 hours in a synchronous fashion. Using the freezing-thawing technique for infected blood, only the merozoite stage resists, the other forms being destroyed.
Observation of blood parasites takes place on stained smears carried out by taking a drop of blood from the tail. The smears are then stained with May-Grumwald-Giesma. Calculation of the parasitemia (number of parasites per 100 red blood corpuscles) is carried out on smears.
In these trials bistramide D is used in sterile physiological water containing 5% DMSO.
The product is injected by sub-cutaneous route in the thigh.
In order to verify the activity of the compound studied, the PETERS test is used which constitutes the reference for the screening of molecules with anti-malarial activity. (PETERS W. 1980. Chemotherapy and Drug resistance in Malaria, vol II, Academic Press).
After treatment for 4 days, the percentage of red blood corpuscles parasitized is compared on thin smears between the control batch and the treated batch. In this way a percentage inhibition is established. […]
a) injection of 10^7 of parasitized red blood corpuscles by I.P. route (D0) b) injection of Bistramide D at 15 mg/kg/day, for 4 days by sub-cutaneous route (D0, D1. D2, D3) c) checking the parasitemia on smears on D4

[3] = test system: Plasmodium vinckei petteri; test: Flow cytometry study of parasitized murine red blood corpuscles; conditions: G1 phase, maturation stage
Excerpt: The consequence of this is to halt the proliferation at the middle and old trophozoite stage.

[4] = test system: Plasmodium vinckei petteri; test: Study of the parasitic stage susceptible to bistramides; type: in vivo, Plasmodium vinckei petteri in SWISS female white mice; conditions: for patent period: time necessary for the parasitemia to reach 1%: 15 mg/kg, control 5 D
Experimental: In order to appreciate the parasitic stage or stages the most susceptible to the action of the bistramides of the invention, the effect of these bistramides was studied on each parasitic stage predominant during the cell cycle for a given species of Plasmodium.
The results given hereafter concern the effect of bistramide B on the parasitic stages of Plasmodium vinckei petteri.
After infestation of the mice, five batches of five mice are constituted. Each batch is treated with a dose of 15 mg/kg of bistramide D at the moment when one of the stages predominates.
In addition, the following batches are prepared: one control batch, one batch of merozoites, one ring batch, one batch of young trophozoites, one batch of middle trophozoites and one batch of old trophozoites.
The following are evaluated: the retardation of parasitemia or the patent period as the time in days necessary for the parasitemia to reach 1%.

KB = test: Cytotoxicity, 50% inhibition of cell growth, KB; type: cell-based; conditions: Homo sapiens, read-out: IC50 (50% inhibition of cell growth)
Experimental: as §1, §2

HT 29 = test: Cytotoxicity, 50% inhibition of cell growth, HT 29; type: cell-based; conditions: Homo sapiens; HT 29; read-out: IC50 (50% inhibition of cell growth)
Experimental: as §1, §2

L.(L) donovani = test: Anti-leishmanial activity in vitro; type: cell-based; conditions: 500 μg/ml

SMILES: C/C=C/C(O)CC1CCC(C)C(CC(=O)NCC(O)C(C)C(=O)NCCCC2OC3(CCCC(CCC(C)/C=C(\C)C(C)O)O3)CCC2C)O1 (centres unmarked) [Bistramide D]
- toxicity in vivo (mice): less toxic
- IC50 (P388/dox (p388r)): 5.82 µg/mL (≈ 8.23 µM)
- IC50 (P388 (p388s)): 0.36 µg/mL (≈ 0.509 µM)
- tumoural growth relative to controls (100%) ([1]; 5 mg/kg, IP, every day for 16 days): 100%
- tumoural growth relative to controls (100%) ([1]; 10 mg/kg, IV, days 1, 5, 9, 14): 76%
- tumoural growth relative to controls (100%) ([1]; 20 mg/kg, IV, days 1, 5, 9, 14): 53%
- IC50 (B16): 0.1 µg/mL (≈ 0.141 µM)
- percentage inhibition of parasitemia ([2]; trial A): 85%
- parasitemia, treated batch on D4 ([2]; trial A, controls 4%): 0.64%
- percentage inhibition of parasitemia ([2]; trial B): 87%
- parasitemia, treated batch on D4 ([2]; trial B, controls 4%): 0.50%
- percentage inhibition of parasitemia ([2]; trial C): 81%
- parasitemia, treated batch on D4 ([2]; trial C, controls 1.2%): 0.23%
- blocking of the parasite / of parasitic proliferation [3]: partial blocking of the parasite at its maturation stage
- stage selectivity / significance versus control batch ([4]; KRUSKAL-WALLIS unilateral test, middle and old trophozoite): selective activity
- patent period: time necessary for the parasitemia to reach 1% ([4]; merozoite batch): 5 D
- patent period: time necessary for the parasitemia to reach 1% ([4]; middle trophozoite batch): 6.25 D
- patent period: time necessary for the parasitemia to reach 1% ([4]; old trophozoite batch): 6.2 D
- patent period: time necessary for the parasitemia to reach 1% ([4]; ring batch): 5.4 D
- patent period: time necessary for the parasitemia to reach 1% ([4]; young trophozoite batch): 5.6 D
- IC50 (KB): 10 µg/mL (≈ 14.1 µM)
- IC50 (HT 29): 2.76 µg/mL (≈ 3.9 µM)
- anti-leishmanial activity (L.(L) donovani): has an anti-leishmanial activity in vitro
